# Experimental data: US8927580B2, “Thiosemicarbazone compounds and use in the treatment of cancer” (Oncochel Therapeutics LLC, priority 2010, dated 2015)
# Structures can show the parent of a compound that is named as a salt.
# Columns and labels:
# [1] = system: PANC 1 pancreatic cancer cells; experiment: MTT proliferation assay, PANC 1; format: cell-based; details: Homo sapiens; PANC 1, MTT, 72 h
# Description: (§1) The pancreatic cancer cell lines, including MIAPaCa-2, PANC 1, CAPAN-2 and CFPAC-1 were a generous gift from Prof. Andrew Biankin (Garvan Institute, NSW, Australia). The MIAPaCa-2, PANC 1 and CFPAC-1 cell lines were grown in DMEM medium (Invitrogen) and CAPAN-2 cells were grown in McCoy's medium (Invitrogen). All media was supplemented with 10% (v/v) fetal calf serum (Invitrogen), 1% (v/v) non-essential amino acids (Invitrogen), 1% (v/v) sodium pyruvate (Invitrogen), 2 mM L-glutamine (Invitrogen), 100 μg/mL of streptomycin (Invitrogen), 100 U/ml penicillin (Invitrogen), and 0.28 μg/mL of fungizone.
# (§2) To further examine the spectrum of anti-proliferative activity, Dp4cycH4mT was tested against pancreatic cancer in vitro, performing MTT proliferation assays with PANC 1, MIAPaCa-2, CFPAC-1 and CAPAN-2 pancreatic cancer cells. As a comparison, currently used treatments for pancreatic cancer including gemcitabine and 5-fluorouracil were also tested. The iron chelator, DFO, was included as a positive control.
# (§3) Table 2A. Anti-proliferative activity of Dp4cycH4mT against pancreatic cancer cell lines. Growth and antiproliferative activity IC50 (μM) values of Dp4cycH4mT in a variety of pancreatic cell lines and in comparison to DFO and the clinically used drugs gemcitabine and 5-fluorouracil as determined by the MTT assay. Cells were seeded and allowed to attach to wells for 24 h and then incubated for 72 h at 37° C. with control medium or the chelators. Results are mean±SD (3 experiments).
# as §3, with “2B.” for “2A.”, “IC90” for “Growth and antiproliferative activity IC50”
# [2] = system: CFPAC-1 pancreatic cancer cells; experiment: MTT proliferation assay, CFPAC-1; format: cell-based; details: Homo sapiens; CFPAC-1, MTT, 72 h
# Description: as §1, §2, §3
# as §3, with “2B.” for “2A.”, “IC90” for “Growth and antiproliferative activity IC50”
# [3] = system: CAPAN-2 pancreatic cancer cells; experiment: MTT proliferation assay, CAPAN-2; format: cell-based; details: Homo sapiens; CAPAN-2, MTT, 72 h
# Description: as §1, §2, §3
# as §3, with “2B.” for “2A.”, “IC90” for “Growth and antiproliferative activity IC50”
# [4] = system: MIAPaCa-2 pancreatic cancer cells; experiment: MTT proliferation assay, MIAPaCa-2; format: cell-based; details: Homo sapiens, MIA PaCa-2; MIAPaCa-2, MTT, 72 h
# Description: as §1, §2, §3
# as §3, with “2B.” for “2A.”, “IC90” for “Growth and antiproliferative activity IC50”
# [5] = system: PANC 1 human pancreatic carcinoma; experiment: PANC 1 xenograft in nude mice: tumour growth; format: in vivo, nude mice (BALBc nu/nu)
# Description: FIG. 5). […] (5 mg/kg) or vehicle control.
# [6] = mouse, in vivo
# [7] = system: DMS-53 human lung carcinoma; experiment: DMS-53 xenograft in nude mice, oral gavage: tumour growth; format: in vivo, nude mice (BALBc nu/nu); details: for Tumour weight: 21 days; for net tumour size (% of initial tumour volume): after 21 days
# [8] = system: DMS-53 human lung carcinoma; experiment: DMS-53 xenograft in nude mice, i.v. administration: tumour growth; format: in vivo, nude mice (BALBc nu/nu)
# [9] = DMS-53 xenograft oral study: body and organ weights, haematology, biochemistry, histology; format: in vivo, nude mice (BALBc nu/nu)
# [10] = DMS-53 xenograft i.v. study: body and organ weights, haematology, histology; format: in vivo, nude mice (BALBc nu/nu); details: for HCT / HGB / PLT / RBC / WBC / Body weight (% of initial weight) / Brain weight / Heart weight / Kidney weight / Liver weight / Spleen weight / weight loss (% of initial body weight): i.v.; for HCT / HGB / PLT / RBC / WBC: average; for weight loss (% of initial body weight): after 25 days
smiles,measurement,setting,value
O=c1[nH]cc(F)c(=O)[nH]1 [5-fluorouracil],IC50,[1],62.3 ± 6.5 µM
same,IC90,[1],> 20 µM
same,IC50,[2],41.2 ± 1.1 µM
same,IC90,[2],> 40 µM
same,IC50,[3],59.2 ± 24.2 µM
same,IC90,[3],> 80 µM
same,IC50,[4],24.3 ± 6.3 µM
same,IC90,[4],> 5 µM
"CN(C(=S)NN=C(c1ccccn1)c1ccccn1)C1CCCCC1 [Dp4cycH4mT.HCl, di-2-pyridylketone 4-cyclohexyl-4-methyl-3-thiosemicarbazone]",average tumour size (% of the original tumour size),"[5]; after 6 weeks, 5 mg/kg i.v. 5 days/week",112%
same,final tumour weight,"[5]; after 43 days, 5 mg/kg i.v.",40 ± 12 mg
same,MYOCARDIUM Fibrosis,[6],−
same,MYOCARDIUM HP (histopathological changes),[6],N
same,SPLEEN HPC (score for the presence of haematopoietic cells in the splenic red pulp),[6],N
same,iron deposits in the kidney,[6],iron deposits were observed
"CCN(C)C(=S)NN=C(c1ccccn1)c1ccccn1 [Dp4e4mT.HCl, di-2-pyridylketone 4-ethyl-4-methyl-3-thiosemicarbazone]",Tumour weight,[7]; 2.5 mg/kg,0.63 g
same,net tumour size (% of initial tumour volume),[7]; 2.5 mg/kg,645%
same,net tumour size (% of initial tumour volume),[7]; 5 mg/kg,733%
same,Tumour weight,[7]; 10 mg/kg,0.46 g
same,Tumour weight,[8]; 1.5 mg/kg,0.48 ± 0.6 g
same,Tumour weight,[8]; 4 mg/kg,0.11 ± 0.09 g
same,Tumour weight,[8]; 6 mg/kg,0.04 ± 0.03 g
same,myocardial lesions (Gomori-Trichrome stain),"[9]; Dp44mT 0.75 mg/kg, Dp4e4mT.HCl 3 weeks at 2.5, 5, 7.5 and 10 mg/kg oral",did not induce myocardial lesions
same,"histology of the liver, spleen, kidney, brain or tumour (H & E) vs control","[9]; Dp44mT 2 weeks at 0.75 mg/kg, Dp4e4mT.HCl 3 weeks at 2.5, 5, 7.5 and 10 mg/kg oral",no significant differences
same,Total Iron-Binding Capacity (TIBC),"[9]; oral gavage 21 days, 5 mg/kg",53.1 ± 1.2 µmol/L
same,Alkaline Phosphatase (ALP),"[9]; oral gavage 21 days, 10 mg/kg",89.5±4.5 U/L
same,Body weight (% initial),"[9]; oral, 10 mg/kg",94 % initial
same,"histology of the liver, spleen, kidney, brain or tumour (H & E) vs control","[10]; 2 weeks i.v., Dp44mT 0.75 mg/kg, Dp4e4mT.HCl 4 and 6 mg/kg",no significant differences
same,myocardial lesions (Gomori-Trichrome stain),"[10]; 2 weeks i.v., Dp44mT 0.75 mg/kg, Dp4e4mT.HCl 4 or 6 mg/kg",did not induce myocardial lesions
same,"change in red blood cell count, haemoglobin or white blood cell count","[10]; after 2 weeks, Dp44mT 0.75 mg/kg, Dp4e4mT.HCl 1.5, 4 or 6 mg/kg i.v.",no significant change
same,HCT,[10]; 1.5 mg,0.4
same,HGB,[10]; 1.5 mg,150.60 g/L
same,PLT,[10]; 1.5 mg,766.4 10 × 9 cells/L
same,RBC,[10]; 1.5 mg,8.76 10 × 12 cells/L
same,WBC,[10]; 1.5 mg,3.34 10 × 9 cells/L
same,Body weight (% of initial weight),[10]; 1.5 mg/kg,95.14 ± 0.97 % initial weight
same,Brain weight,[10]; 1.5 mg/kg,0.26 ± 0.13 g
same,Heart weight,[10]; 1.5 mg/kg,0.1 ± 0.004 g
same,Kidney weight,[10]; 1.5 mg/kg,0.26 ± 0.01 g
same,Liver weight,[10]; 1.5 mg/kg,1.01 ± 0.02 g
same,Spleen weight,[10]; 1.5 mg/kg,0.11 ± 0.01 g
same,HCT,[10]; 4 mg,0.47
same,HGB,[10]; 4 mg,153.75 g/L
same,PLT,[10]; 4 mg,1224.5 10 × 9 cells/L
same,RBC,[10]; 4 mg,10.74 10 × 12 cells/L
same,WBC,[10]; 4 mg,2.94 10 × 9 cells/L
same,Body weight (% of initial weight),[10]; 4 mg/kg,99.41 ± 1.75 % initial weight
same,Brain weight,[10]; 4 mg/kg,0.36 ± 0.01 g
same,Heart weight,[10]; 4 mg/kg,0.1 ± 0.01 g
same,Kidney weight,[10]; 4 mg/kg,0.26 ± 0.01 g
same,Liver weight,[10]; 4 mg/kg,1.03 ± 0.02 g
same,Spleen weight,[10]; 4 mg/kg,0.08 ± 0.003 g
same,weight loss (% of initial body weight),[10]; 4 mg/kg,0.6%
same,HCT,[10]; 6 mg,0.41
same,HGB,[10]; 6 mg,132.33 g/L
same,PLT,[10]; 6 mg,1238 10 × 9 cells/L
same,RBC,[10]; 6 mg,9.33 10 × 12 cells/L
same,WBC,[10]; 6 mg,4.63 10 × 9 cells/L
same,Body weight (% of initial weight),[10]; 6 mg/kg,93.38 ± 3.96 % initial weight
same,Brain weight,[10]; 6 mg/kg,0.36 ± 0.03 g
same,Heart weight,[10]; 6 mg/kg,0.11 ± 0.01 g
same,Kidney weight,[10]; 6 mg/kg,0.27 ± 0.01 g
same,Liver weight,[10]; 6 mg/kg,1.1 ± 0.08 g
same,Spleen weight,[10]; 6 mg/kg,0.089 ± 0.01 g
same,weight loss (% of initial body weight),[10]; 6 mg/kg,7%
